The record followed here is patent US20100137313A1 (ASTRAZENECA AB, priority 2008, published 2010).

One assay concerns Spn 548 (gram+). The assay can be described thus: Bacterial susceptibility testing in liquid media (MIC). The format is cell-based. As to conditions: Streptococcus pneumoniae; lowest concentration reducing growth by 80% or more; 37° C., 24 hrs. From the text:
(§1) Compounds may be tested for antimicrobial activity by susceptibility testing in liquid media. Compounds may be dissolved in dimethylsulfoxide and tested in 10 doubling dilutions in the susceptibility assays. The organisms used in the assay may be grown overnight on suitable agar media and then suspended in a liquid medium appropriate for the growth of the organism. The suspension can be a 0.5 McFarland and a further 1 in 10 dilution can be made into the same liquid medium to prepare the final organism suspension in 100 μL. Plates can be incubated under appropriate conditions at 37° C. for 24 hrs prior to reading. The Minimum Inhibitory Concentration (MIC) may be determined as the lowest drug concentration able to reduce growth by 80% or more.

The test system of another assay is Mca 445 (gram−). The description is as above. The format is cell-based. To be noted: Moraxella catarrhalis; lowest concentration reducing growth by 80% or more; 37° C., 24 hrs.
Excerpt: as §1

A further assay deals with Spy 838 (gram+). Described as above. Format: cell-based. As to conditions: Streptococcus pyogenes; lowest concentration reducing growth by 80% or more; 37° C., 24 hrs.
Excerpt: as §1

In assay [1] the target is S. pneumoniae Topoisomerase IV ATPase (ParE) (Streptococcus pneumoniae serotype 4, UniProt Q59961). The assay can be described thus: S. pneumoniae Topoisomerase IV ATPase inhibition. The format is biochemical. As to conditions: values marked * are an average of two or more data points, read-out: % Inh (13 μM) of S. pneumoniae Topoisomerase IV ATPase. The method, boiled down: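 Malachite green/ammonium molybdate phosphate detection, A650. 1.25 nM ParE, 160 μM ATP, sheared salmon sperm DNA 5 μg/ml, 20 mM Tris pH 8.0, 8.0 mM MgCl2. Controls: 2% DMSO = 0%, 20 μM EDTA = 100% inhibition; IC50 over 10 concentrations.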
Sequence of S. pneumoniae Topoisomerase IV ATPase (ParE) (Q59961 whole entry): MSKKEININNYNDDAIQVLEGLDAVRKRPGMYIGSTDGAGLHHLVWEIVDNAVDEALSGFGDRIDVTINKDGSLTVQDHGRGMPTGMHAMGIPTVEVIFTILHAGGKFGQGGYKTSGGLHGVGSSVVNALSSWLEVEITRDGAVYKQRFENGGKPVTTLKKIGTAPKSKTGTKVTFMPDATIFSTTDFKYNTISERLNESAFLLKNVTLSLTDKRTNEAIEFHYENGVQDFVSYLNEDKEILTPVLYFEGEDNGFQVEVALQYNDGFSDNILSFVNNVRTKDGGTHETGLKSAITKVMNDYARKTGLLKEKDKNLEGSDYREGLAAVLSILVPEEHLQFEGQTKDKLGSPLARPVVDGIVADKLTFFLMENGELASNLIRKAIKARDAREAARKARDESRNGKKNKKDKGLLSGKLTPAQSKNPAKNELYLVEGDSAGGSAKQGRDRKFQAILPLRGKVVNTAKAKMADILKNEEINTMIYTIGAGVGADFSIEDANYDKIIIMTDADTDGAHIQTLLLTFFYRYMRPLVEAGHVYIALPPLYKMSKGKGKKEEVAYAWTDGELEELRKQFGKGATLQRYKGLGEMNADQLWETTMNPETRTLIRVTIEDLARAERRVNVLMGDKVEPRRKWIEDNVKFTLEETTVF

As usually defined, the MIC is the lowest concentration that inhibits growth of the organism. Lower therefore signals inhibition by little substance.

≈ marks a conversion by molar mass, not a printed value.

For `NCCCNc1nc(Nc2ccc(F)c(Cl)c2)ncc1-c1cncnc1` [Ex 211], the MIC with Spn 548 (gram+) worked out at 25 µM (≈ 9.35 µg/mL); in the assay on Mca 445 (gram−) it was 12.5 µM (≈ 4.67 µg/mL); in the assay on Spy 838 (gram+), 25 µM (≈ 9.35 µg/mL). The inhibition at 13 µM in assay [1] stood at 76.6%.

Consider `O=C(O)c1ccc(-c2cnc(Nc3ccc(F)c(Cl)c3)nc2N2CCOCC2)s1` [Example 176, 5-(2-(3-chloro-4-fluorophenylamino)-4-morpholinopyrimidin-5-yl)thiophene-2-carboxylic acid], for which the MIC against Spn 548 (gram+) was determined as 6.25 µM (≈ 2.72 µg/mL); against Mca 445 (gram−), 0.78 µM (≈ 0.339 µg/mL); against Spy 838 (gram+), 12.5 µM (≈ 5.44 µg/mL). The inhibition at 13 µM in assay [1] worked out at 89%.

For the compound `Fc1ccc(Nc2ncc(-c3cncnc3)c(NCCc3ccncc3)n2)cc1Cl` [Example 46, N^2-(3-chloro-4-fluorophenyl)-N^4-(2-pyridin-4-ylethyl)-5-pyrimidin-5-ylpyrimidine-2,4-diamine], the MIC was determined as 3.13 µM (≈ 1.32 µg/mL) in the assay with Spn 548 (gram+), 3.13 µM (≈ 1.32 µg/mL) in the assay with Mca 445 (gram−) and 8.84 µM (≈ 3.73 µg/mL) against Spy 838 (gram+). Besides, the inhibition at 13 µM in assay [1] is 93.5%.
